Assay results taken from patent EP0327365B1, “Improvements in or relating to modified haptens useful as imaging and therapeutic agents” (HYBRITECH INCORPORATED, priority 1988, dated 1989).

Tests used:
[1] = tested on: T-380 tumors; assay: Hapten biodistribution, premix protocol with bifunctional antibody ECH037.2; assay type: in vivo, nude mice; parameters: TOTAL RECOV: unit not given here; conditions: for % DOSE PER GRAM, KIDNEY / % DOSE PER GRAM, LIVER / % DOSE PER GRAM, TUMOR / FECES / URINE / % DOSE PER GRAM, BLOOD / TUMOR/BLOOD / TOTAL RECOV: premix with 20 µg ECH037.2; for % DOSE PER GRAM, BLOOD: 111In-labeled hapten i.v.; for TUMOR/BLOOD: ratio; for Percent Injected Dose in Feces: premix protocol (Table VI); for %Dose per Gram, Blood / %Dose per Gram, Tumor: premix with 20 µg ECH037.2 (Table VIII)
Protocol: (§1) Two protocols were used for examining the biodistribution of the derivatized haptens in the presence of the bifunctional antibody ECH037.2. In a premix protocol, ECH037.2 and the derivatized hapten were combined prior to injection in the animals. In the prelocalization protocol, ECH037.2 was injected into the animals, and the antibody was allowed to prelocalize for 24 hours prior to injection of the radiolabeled hapten.
(§2) Biodistribution studies were performed in nude mice carrying subcutaneous implants of the human colon carcinoma cell line T-380 which expresses the carcinoembryonic antigen (CEA) recognized by ECH037.2. Briefly, Balb/C Nu/Nu mice were injected subcutaneously with a minced preparation of T-380 tumor implants and maintained for approximately two weeks, or until the tumor implant had grown to a size of approximately 0.5 grams as described by Hagan, P.L., et al. J. Nuc. Med., 26 1418-1423 (1985). Mice were kept in a sterile environment to prevent complications due to bacterial or viral infections. Biodistributions were performed as described by Halpern, S., et al., Cancer Res. 43, 5347-5355 (1983). Briefly, the radiolabeled haptens were injected intravenously in […], and the pharmacokinetics were evaluated at several time points post-injection. At these times, mice were sacrificed and weighed. Organs were removed, their weight recorded, and each organ was then washed in sterile PBS, pH 7.0, and fixed in formalin solution. Samples of blood, urine and feces also were collected and their weight similarly recorded. The organs, or a portion thereof, were transferred to clean tubes and their radioactive content was determined in a well-type gamma-counter.
(§3) Relative radioactive content of each organ was expressed as a percentage of injected dose per organ.
To indium-label the haptens of the invention 10 »l of 0.1 mM ligand was combined with X »l of ¹¹¹InCl₃ (in 50 mM HCl) and (x+10) »l of 0.26 M ammonium citrate, pH 6.0. X is calculated by the following equation: X = (200 »Ci)/(A »Ci/»l) [formula] where A is the specific activity of the ¹¹¹In.
The labeling was done in an acid-washed microfuge tube. After combining all of the components above, the solution was vortexed and allowed to stand at room temperature for 15 minutes.
Incorporation of the ¹¹¹In into the chelating agent was determined by TLC on silica in a methanol/aqueous ammonium acetate solvent system as described by Meares, et al. (Anal. Biochem., 142, 68-75 (1984)). Greater than 95% incorporation of the radioactivity into the chelate was required for the sample to be submitted for a biodistribution assay.
Prior to injection the ¹¹¹In-labeled hapten was diluted into freshly prepared isotonic sodium bicarbonate (1.39% w/v) containing 1 mg/ml normal human serum albumin (Buminate, 25% solution, Travenol Laboratories, Glendale, California) to which the bifunctional antibody had been added. The final composition of the solution was 0.2 mg/ml ECH037.2, 0.5 »M chelate, 0.1 »Ci/»l ¹¹¹In, all in a volume of 2.0 ml. For the biodistribution studies, 100 »l of the solution was injected into the tail vein of each animal.

[2] = tested on: T-380 tumors; assay: Hapten biodistribution, prelocalization protocol with bifunctional antibody ECH037.2; assay type: in vivo, nude mice; conditions: in words
Protocol: as §1, §2, §3
To indium-label the chelating agents for the prelocalization protocol, 5 »l of 0.1 mM chelating agent was combined with X »l of ¹¹¹InCl₃ (in 50 mM HCl) and (x+5) »l of 0.26 M ammonium citrate, pH 6.0. X was calculated by the following equation: X = 200 »Ci/A »Ci/»l [formula] where A is the specific activity of the ¹¹¹InCl₃ solution. The solution was vortexed and allowed to stand at room temperature for 15 minutes, after which incorporation of ¹¹¹In label into the chelating agent was determined as described for the premix protocol. If at least 95 percent of the ¹¹¹In was bound by the chelating agent, the material was then diluted to a final volume of 2 ml with isotonic (1.39 percent, w/v) sodium bicarbonate containing 1 mg/ml normal human serum albumin. This material (100 »l) then was injected into each tail vein of mice which had each been injected 24 hours earlier with 5 »g of ECH037.2 in 100 »l isotonic sodium bicarbonate containing 1 mg/ml normal human serum albumin.

[3] = tested on: monoclonal antibody CHA255; assay: Determination of hapten-antibody dissociation rates; assay type: binding, BALB/c mice; conditions: 22°C; indium complex of hapten from CHA255 after 100 fold excess of indium-115 loaded hapten
Protocol: Hapten-antibody dissociation rates were determined using monoclonal antibody CHA255, prepared as described in Example 2A, by measuring the quantity of ¹¹¹In³⁺ chelate released from the antibody hapten complex as a function of time after addition of a 100 fold excess (over antibody binding sites) of indium-115 loaded hapten. Thus, for each hapten, a 700 »l solution was prepared containing: antibody at a concentration of 160 nM; indium loaded hapten, trace labeled with ¹¹¹In (total concentration = 160 nM); normal human serum albumin at a total concentration of 1.5 mg/mL; and isotonic phosphate buffered saline, (10 mM PO₄²⁻, 150 mM NaCl, pH 7.2). Indium-115 loaded hapten was added to a final Concentration of […]. Reactions were stirred by placing the sample containers ir a rack mounted on a vortexer head.
At various times after addition of the excess hapten, […] portions of the reaction solutions were transferred to Centrifree tubes (Amicon Corperation, Danvers, Massachusetts) and centrifuged at 1500xg for eight to ten minutes. The reaction time was taken to be the time between addition of the excess hapten and the time the centrifuge reached the desired velocity. Six timepoints, each in duplicate, were obtained over a range of about two reaction half-lives for each rate constant determination. A 200 »l portion from each centrifuged and uncentrifuged solution was then counted for ¹¹¹In. The relative concentration of free hapten was taken to be the ratio of counts in the centrifuged solution to the uncentrifuged solution at each timepoint. Times were recorded to the nearest tenth of a minute.
Room temperature rate constants were measured without the aid of a constant temperature bath. The ambient temperature remained at 22°±1 C.
Rate constants and standard deviations were obtained from a plot of the logarithm of relative complex concentration vs. time. Data were analyzed using the linear regression module of the RS/1 Program (BBN Software Products Corporation, Cambridge, Massachusetts).
Control samples were included in each experiment to determine: A) that the initial condition of 100% of labeled hapten bound to antibody was met, and B) that in the absence of antibody, 100% of counts were able to penetrate the Centrifree membrane. […]

Row | Structure (SMILES) | % DOSE PER GRAM, KIDNEY ([1]; 24 hours) | % DOSE PER GRAM, LIVER ([1]; 24 hours) | % DOSE PER GRAM, TUMOR ([1]; 24 hours) | FECES ([1]; 24 hours) | URINE ([1]; 24 hours) | % DOSE PER GRAM, BLOOD ([1]; 24 hours) | TUMOR/BLOOD ([1]; 24 hours) | Percent Injected Dose in Feces ([1]; 24 hrs.) | % DOSE PER GRAM, KIDNEY ([1]; 48 hours) | % DOSE PER GRAM, LIVER ([1]; 48 hours) | % DOSE PER GRAM, TUMOR ([1]; 48 hours) | FECES ([1]; 48 hours) | URINE ([1]; 48 hours) | % DOSE PER GRAM, BLOOD ([1]; 48 hours) | TUMOR/BLOOD ([1]; 48 hours) | Percent Injected Dose in Feces ([1]; 48 hrs.) | t1/2, Dissociation Half-Lives [3] | TOTAL RECOV ([1]; 24 hours) | TOTAL RECOV ([1]; 48 hours) | further results
1 | O=C(O)CN(CC(=O)O)CC(Cc1ccc(NC(=S)NCCO)cc1)N(CC(=O)O)CC(=O)O (stereo not shown) [EOTUBE] | 2.8 % DOSE PER GRAM | 3.8 % DOSE PER GRAM | 12.5 % DOSE PER GRAM | 6.2% of total injected dose | 25.9% of total injected dose | 9.3 % DOSE PER GRAM | 1.34 | 6.2 Percent Injected Dose | 1.4 % DOSE PER GRAM | 3.1 % DOSE PER GRAM | 14.5 % DOSE PER GRAM | 7.9% of total injected dose | 49.3% of total injected dose | 4.7 % DOSE PER GRAM | 3.09 | 7.9 Percent Injected Dose | – | – | – | tumor uptake ([1]; premix protocol, Figure 1 (24 and 48 hours), in words): outstanding tumor uptake; tumor/blood ratios ([1]; premix protocol, Figure 2 (24 and 48 hours), in words): good tumor/blood ratios; tumor/organ ratios ([2]; 24 hours (Figure 7)): high tumor/organ ratios; tumor uptake ([2]; all time points (Figures 3-5)): high tumor uptake at all time points
2 | O=C(O)CN(CC(=O)O)CC(Cc1ccc(NC(=S)Nc2ccccc2)cc1)N(CC(=O)O)CC(=O)O (stereo not shown) [PHTUBE] | 2.9 % DOSE PER GRAM | 3.6 % DOSE PER GRAM | 12.4 % DOSE PER GRAM | 13.9% of total injected dose | 20.3% of total injected dose | 8.9 % DOSE PER GRAM | 1.39 | 13.9 Percent Injected Dose | 1.7 % DOSE PER GRAM | 2.3 % DOSE PER GRAM | 10.6 % DOSE PER GRAM | 21.7% of total injected dose | 24.5% of total injected dose | 5.4 % DOSE PER GRAM | 1.96 | 27.1 Percent Injected Dose | 1.25 h | 57.2 | 62.4 | –
3 | NC(=S)Nc1ccc(CC(CN(CC(=O)O)CC(=O)O)N(CC(=O)O)CC(=O)O)cc1 (stereo not shown) [TUBE] | 2.4 % DOSE PER GRAM | 4.0 % DOSE PER GRAM | 8.5 % DOSE PER GRAM | 4.1% of total injected dose | 23.7% of total injected dose | 8.0 % DOSE PER GRAM | 1.06 | 4.1 Percent Injected Dose | 1.1 % DOSE PER GRAM | 1.6 % DOSE PER GRAM | 6.5 % DOSE PER GRAM | 9.8% of total injected dose | 48.8% of total injected dose | 3.8 % DOSE PER GRAM | 1.71 | 9.9 Percent Injected Dose | 1.4 h | 48.2 | 69.5 | %Dose per Gram, Blood ([1]; 24 hrs. post-injection): 8.0 %Dose per Gram; %Dose per Gram, Tumor ([1]; 24 hrs. post-injection): 8.5 %Dose per Gram; %Dose per Gram, Blood ([1]; 48 hrs. post-injection): 3.8 %Dose per Gram; %Dose per Gram, Tumor ([1]; 48 hrs. post-injection): 6.5 %Dose per Gram; %Dose per Gram, Blood ([1]; 72 hrs. post-injection): 1.7 %Dose per Gram; %Dose per Gram, Tumor ([1]; 72 hrs. post-injection): 5.3 %Dose per Gram
